Measured values: patent publication EP4585588A1, “BENZIMIDAZOLE COMPOUND, AND PREPARATION METHOD THEREFOR AND USE THEREOF” (Suzhou Pharmavan Co., Ltd., priority 2022, dated 2024)

What was measured:
[1] = system: Models of Heart Failure due to Pressure Overload of Mice; experiment: Pharmacodynamic test in mouse models of heart failure due to pressure overload (thoracic aorta ligation); type: in vivo, C57BL/6 mice; settings: after four weeks of administration (nine weeks of modeling); for Ejection Fraction (Mean) of Ventriculus Sinister of Heart: Table 5, model group 28.6%; for Ejection Fraction (Mean) of Ventriculus Sinister of Heart / Ejection Fraction (Mean) of Heart: 5 mg/kg intraperitoneal once a day for four consecutive weeks; for effect on the cardiac contractile function (result in words): 5 mg/kg intraperitoneal once a day; for Ejection Fraction (Mean) of Heart: Table 6, model group 29.8%
Experimental: 1.1 Animals healthy C57BL/6 mice
Modeling by thoracic aorta ligation surgery: preoperative echocardiography was performed to exclude mice with abnormal cardiac functions; for mice with normal cardiac functions, anesthesia was performed, and the mice were anesthetized and then transferred into a small animal operating table and fixed; an open airway was established via endotracheal intubation, and anesthesia was maintained; taking the second rib as the center, the skin was cut along the sternum toward the first and third ribs to expose the connection between the second rib and the sternum; the second rib was cut to expose the aorta thoracic segment; the aortic arch was freed, a thin thread was inserted underneath, a thin needle was placed in parallel to the aortic arch for co-ligation; after ligation, the thin needle was withdrawn to observe the condition of the mice, and the mice were sutured layer by layer after stabilization; the mice were placed on the thermal insulation pad to keep warm, and after waking up, the mice were put back into the cage for daily feeding according to the activity.
After five weeks of modeling, echocardiography was performed on the mice to determine the ejection fractions of the hearts of the mice. When the ejection fraction decreased by about 50%, the ejection fraction met the experimental requirements, and the administration experiment started. Animals were grouped randomly and administered according to the ultrasound data, the echocardiography was performed every two weeks until week 9 ended, and pathological section analysis was performed.
The results were expressed using mean±standard error, data analysis was performed using GraphPad Prism statistical software, and the comparison was analyzed using a t-test. P < 0.05 was determined that there was a difference with statistical significance, otherwise P was determined that there was no significant difference.

[2] = system: Primary cardiomyocytes of suckling rats; experiment: Area measurement of cardiomyocytes after PE injury; type: cell-based; settings: for Cell Area Hypertrophy Multiple (Mean±Standard Deviation) Compared with Control Wells: 48 h, 10 µM; for cardiomyocyte area compared with the PE group (result in words): 10 µM compound, PE 20 µM for 48 hours
Experimental: Primary cardiomyocytes of suckling rats were isolated and cultured and inoculated on a cell culture plate. A drug stock solution was taken and separately added to cell wells according to a certain dilution ratio, and a final concentration was 10 µM. After half hour of drug action, a phenylephrine (PE) stock solution was added, and a final concentration of PE was 20 µM. After 48 hours of PE action, cell samples were collected for real-time quantitative PCR assay or cell area measurement.
Separation and plating of cardiomyocytes of rats: a certain number of SPF suckling rats were taken and placed in a clean bench according to an actual requirement for the number of cells, thoracic cavities were opened by scissors, hearts were separated, and the hearts were cut into tissue fragments with sterilized surgical scissors; Collagenase Type II (manufacturer: Sigma, article No.: C2-28-100MG) was added to a D-HANKS balanced salt buffer to prepare a […] enzyme digestion solution, and the tissue fragments of hearts were continuously digested for three times in a 37 °C constant-temperature water bath box; about 2 mL of the enzyme digestion solution was added for the first time, a supernatant was discarded after digestion, centrifugation and precipitation of cardiomyocytes and tissue fragments, about 4 mL of the enzyme digestion solution was independently added for the second time and the third time to continue digestion, a supernatant was remained each time, DMEM containing 10% FBS with the same volume as the digestion solution in the supernatant was immediately added to neutralize digestive enzymes, the supernatants for the second time and the third time were combined and centrifuged, a supernatant was discarded, an appropriate amount of DMEM containing 10% FBS was added to resuspend the cardiomyocytes, the cardiomyocytes were inoculated in a 100 mm culture plate and subjected to differential adhesion in a constant-temperature cell incubator for 2 h, and a supernatant was taken for cell count.
Area measurement of cardiomyocytes of rats: a 24-well plate precoated with 1% gelatin was taken and plated at 1.0×10^3 cells/well, 500 µL of a 10% FBS+DMEM medium was contained in each well, and cells were cultured in a 37 °C constant-temperature cell incubator for 24 h; different compounds were independently prepared into a 100 mM mother liquor with DMSO and gradient diluted with a 10% FBS+DMEM medium to prepare a 10 µM final solution of the compound containing […]; the medium in the 24-well plate was discarded and replaced with a 500 µL/well medium containing a 10 µM compound, and three replicate wells and a negative control well were set for each compound; after 0.5 hours of drug action, PE (manufacturer: Meilun Biotechnology; article No.: MB1602) with a final concentration of 20 µM was added to each well, and no PE was added to the negative control wells; after 48 hours of PE action, at least five fields of view were randomly selected from each well under an inverted microscope (manufacturer: Nikon; model: Eclipse TS100), and the cell area data was calculated by Image J software; the area of the cells in the negative control wells was set to 1, the cell area hypertrophy multiples of the PE wells and each administration well were calculated separately, and statistical analysis was performed using the One-Way ANOVA method.
The cardiomyocyte area was directly measured and the differences between the groups were compared for verification. The cardiomyocytes were co-intervened with PE and drugs and placed under a microscope for direct observation, and images were taken. The cell area data was calculated using Image J software. […]

[3] = system: myosin heavy chain β (β-MHC); settings: 48 h, 10 µM
Experimental: Separation and plating of cardiomyocytes of rats: a certain number of SPF suckling rats were taken and placed in a clean bench according to an actual requirement for the number of cells, thoracic cavities were opened by scissors, hearts were separated, and the hearts were cut into tissue fragments with sterilized surgical scissors; Collagenase Type II (manufacturer: Sigma, article No.: C2-28-100MG) was added to a D-HANKS balanced salt buffer to prepare a 5 µg/mL enzyme digestion solution, and the tissue fragments of hearts were continuously digested for three times in a 37 °C constant-temperature water bath box; about 2 mL of the enzyme digestion solution was added for the first time, a supernatant was discarded after digestion, centrifugation and precipitation of cardiomyocytes and tissue fragments, about 4 mL of the enzyme digestion solution was independently added for the second time and the third time to continue digestion, a supernatant was remained each time, DMEM containing 10% FBS with the same volume as the digestion solution in the supernatant was immediately added to neutralize digestive enzymes, the supernatants for the second time and the third time were combined and centrifuged, a supernatant was discarded, an appropriate amount of DMEM containing 10% FBS was added to resuspend the cardiomyocytes, the cardiomyocytes were inoculated in a 100 mm culture plate and subjected to differential adhesion in a constant-temperature cell incubator for 2 h, and a supernatant was taken for cell count.
A 24-well plate precoated with 1% gelatin was taken and plated at 1×10^5 cells/well, 500 µL of a 10% FBS+DMEM medium was contained in each well, and cells were cultured in a 37 °C constant-temperature cell incubator for 24 h. Different compounds were independently prepared into a 100 mM mother liquor with DMSO and gradient diluted with a 10% FBS+DMEM medium to prepare a 10 µM final solution of the compound containing 0.5% DMSO. The medium in the 24-well plate was discarded and replaced with a 500 µL/well medium containing a 10 µM compound, and three replicate wells and a negative control well were set for each compound. After 0.5 hours of drug action, PE (manufacturer: Meilun Biotechnology; article No.: MB1602) with a final concentration of 20 µM was added to each well, and no PE was added to the negative control wells; after 48 hours of PE action, sample detection was performed.
Expression levels of genes related to cardiomyocyte hypertrophy was analyzed via real-time quantitative PCR detection of mRNA level of atrial natriuretic peptide (ANP) and myosin heavy chain β (β-MHC). The steps include extraction of total RNA of cells, reverse transcription synthesis of cDNA and real-time quantitative PCR assay.
Based on real-time quantitative PCR detection of an mRNA level of ANP of cardiomyocytes, a drug with a potential of anti-cardiomyocyte hypertrophy was preliminarily screened and verified with an mRNA level of another hypertrophy gene β-MHC using a statistical method One-way ANOVA and statistical software GraphPad Prism.

SMILES | Ejection Fraction (Mean) of Ventriculus Sinister of Heart [1] [%] | Cell Area Hypertrophy Multiple (Mean±Standard Deviation) Compared with Control Wells [2] | Mean (real-time quantitative PCR validation results of cardiomyocyte β-MHC) [3] | effect on the cardiac contractile function (result in words) [1] | cardiomyocyte area compared with the PE group (result in words) [2] | Ejection Fraction (Mean) of Heart [1] [%]
Cc1nc2cc(-c3cc(F)ccc3O)ccc2[nH]1 [Formula I-1, 4-fluoro-2-(2-methyl-1H-benzimidazol-5-yl)phenol] | 37.2 | 1.42±0.16 | 1.21 |  |  | 
Cc1nc2cc(-c3cc(F)cc(F)c3O)ccc2[nH]1 [Formula I-2, 2,4-difluoro-6-(2-methyl-1H-benzimidazol-5-yl)phenol] | 38.3 | 1.18±0.16 | 1.21 |  |  | 
Cc1nc2cc(-c3cc(F)cc(C#N)c3O)ccc2[nH]1 [Formula I-3, 5-fluoro-2-hydroxy-3-(2-methyl-1H-benzimidazol-5-yl)benzonitrile] | 37.8 | 1.07±0.15 | 1.24 |  |  | 
Cc1nc2cc(-c3cc(C(N)=O)ccc3O)ccc2[nH]1 [Formula I-4, 4-hydroxy-3-(2-methyl-1H-benzimidazol-5-yl)benzamide] | 35.4 | 1.27±0.34 | 1.15 |  |  | 
Cc1nc2cc(-c3cc(C(N)=O)cc(F)c3O)ccc2[nH]1 [Formula I-5, 3-fluoro-4-hydroxy-5-(2-methyl-1H-benzimidazol-5-yl)benzamide] | 39.7 | 1.50±0.15 | 1.25 |  |  | 
Oc1ccc(F)cc1-c1ccc2[nH]cnc2c1 [Formula I-24, 4-fluoro-2-(1H-benzimidazol-5-yl)phenol] | 40.0 | 1.36±0.12 |  |  |  | 
COc1ccc(F)cc1-c1ccc2[nH]cnc2c1 [Formula I-24-A, 5-(5-fluoro-2-methoxyphenyl)-1H-benzimidazole, reference compound] | 29.4 | 1.77±0.11 |  | no apparent improvement effect | no apparent improvement effect | 
Cn1cnc2cc(-c3cc(F)ccc3O)ccc21 [Formula I-24-B, 4-fluoro-2-(1-methyl-1H-benzimidazol-5-yl)phenol, reference compound] | 27.2 | 1.81±0.20 |  | no apparent improvement effect | no apparent improvement effect | 
Oc1ccccc1-c1cc(F)c2[nH]cnc2c1 [Formula I-24-C, 2-(7-fluoro-1H-benzimidazol-5-yl)phenol, reference compound] | 30.7 | 1.95±0.08 |  | no apparent improvement effect | no apparent improvement effect | 
Cc1nc2cc(-c3cc(C(=O)O)ccc3O)ccc2[nH]1 [Formula I-48, 4-hydroxy-3-(2-methyl-1H-benzimidazol-5-yl)benzoic acid] | 37.2 | 1.06±0.08 | 1.58 |  |  | 
Cc1nc2cc(-c3cc(F)ccc3C(C)(C)O)ccc2[nH]1 [Formula II-1, 2-(4-fluoro-2-(2-methyl-1H-benzimidazol-5-yl)phenyl)propane-2-ol] |  | 1.39±0.30 | 1.32 |  |  | 38.7
Cc1nc2cc(-c3cc(F)cc(F)c3C(C)(C)O)ccc2[nH]1 [Formula II-2, 2-(2,4-difluoro-6-(2-methyl-1H-benzimidazol-5-yl)phenyl)propane-2-ol] |  | 1.33±0.11 | 1.42 |  |  | 37.3
Cc1nc2cc(-c3cc(F)cc(C#N)c3C(C)(C)O)ccc2[nH]1 [Formula II-3, 5-fluoro-2-(2-hydroxypropan-2-yl)-3-(2-methyl-1H-benzimidazol-5-yl)benzonitrile] |  | 1.28±0.10 | 1.28 |  |  | 40.1
Cc1nc2cc(-c3cc(C(=O)N(C)C)ccc3C(C)(C)O)ccc2[nH]1 [Formula II-7, 4-(2-hydroxypropan-2-yl)-N,N-dimethyl-3-(2-methyl-1H-benzimidazol-5-yl)benzamide] |  | 1.14±0.14 | 1.15 |  |  | 39.6
CCCc1cc(C#N)c(C(C)(C)O)c(-c2ccc3nc[nH]c3c2)c1 [Formula II-48] |  | 1.07±0.20 |  |  |  | 41.4
CC(O)c1ccc(F)cc1-c1ccc2[nH]cnc2c1 (stereo not drawn) [Formula II-73, 1-(4-fluoro-2-(1H-benzimidazol-5-yl)phenyl)ethane-1-ol] |  | 1.17±0.16 |  |  |  | 40.5
CCCc1cc(C#N)c(C(C)O)c(-c2ccc3[nH]cnc3c2)c1 (stereo not drawn) [Formula II-96, 2-(1-hydroxyethyl)-3-(1H-benzimidazol-5-yl)-5-propylbenzonitrile] |  | 1.49±0.10 | 1.38 |  |  | 36.8
OCc1ccc(F)cc1-c1ccc2[nH]cnc2c1 [Formula II-121, (4-fluoro-2-(1H-benzimidazol-5-yl)phenyl)methanol] |  | 1.48±0.09 | 1.25 |  |  | 42.2
CCCc1cc(C#N)c(CO)c(-c2ccc3[nH]cnc3c2)c1 [Formula II-144, 2-(hydroxymethyl)-3-(1H-benzimidazol-5-yl)-5-propylbenzonitrile] |  | 1.12±0.13 | 1.39 |  |  | 41.5
